Values of other authors, collected in patent US12648912B2 (Mylan Laboratories Limited, priority 2020, dated 2026).

What was measured:
[1] = not given; remark: listed apart in the source

- Tmax in fasted state relative to after breakfast (15 mg tablets, fasted state): doubled
- Tmax (time to reach maximum concentration) (orally delivered, humans): 4 to 6 h
- second meloxicam concentration peak, time post-dose (post-dose, suggested gastrointestinal recirculation): 12 to 14 h
- solubility in methanol ([1]; methanol): very slightly soluble
- solubility in water ([1]; water): practically insoluble
Compound: Cc1cnc(NC(=O)C2=C(O)c3ccccc3S(=O)(=O)N2C)s1 [Meloxicam, 4-hydroxy-2-methyl-N-(5-methyl-2-thiazolyl)-2H-1,2-benzothiazine-3-carboxamide-1,1-dioxide]
